{"source": "patent US20240108602A1", "about": "“TREATMENT OF MENTAL DISORDERS” (GH Research Ireland Limited, priority 2022, published 2024)", "experiment": "Pharmacokinetics of 5-MeO-DMT and bufotenine after inhalation, LC-MS/MS", "format": "in vivo, human", "protocol": "Blood samples were obtained at 1; 2; 4; 7; 10; 15; 20; 30; 45 min and 1; 1.5; 2; 3; 4 hours after administration.\nPK parameters were generated by algebraic analysis of the concentration versus time plots for each individual. The analysis was carried out using the software Phoenix WinNonlin 6.3."}
{"smiles": "COc1ccc2[nH]cc(CCN(C)C)c2c1", "note": "[5-MeO-DMT]", "values": [{"measurement": "plasma concentration as % of Cmax", "setting": "10 minutes after administration, 6-18 mg", "result": "≤ 10", "unit": "%"}, {"measurement": "plasma concentration as % of Cmax", "setting": "after 2 hours, 6-18 mg", "result": "≤ 1", "unit": "%"}, {"measurement": "detectability in plasma", "setting": "after 3 hours, 6-18 mg", "result": "no longer detectable"}, {"measurement": "5-MeO-DMT still present, % Cmax", "setting": "after about 1 hour, healthy volunteers and PPD patients", "result": "less than 10%"}, {"measurement": "accumulation upon repeated administration", "setting": "repeat within 1 to 4 hours", "result": "No accumulation"}]}
